Assay results from patent US12364718B2, “Microbial compositions to increase the production of PCA from polyphenols” (priority 2020, dated 2025).

Key:
[1] = tested on: B. subtilis 1579; assay: National Antimicrobial Resistance Monitoring System (NARMS) panel screening, MIC in […] 96-well plate; assay type: cell-based, Bacillus subtilis; design: Minimum Inhibitory Concentrations (MIC), 1579a / Minimum Inhibitory Concentrations (MIC), 1579b: unit not given here; conditions: for MIC interpretation (susceptible/intermediate/resistant), 1579a / Minimum Inhibitory Concentrations (MIC), 1579a: duplicate a; for MIC interpretation (susceptible/intermediate/resistant), 1579a / MIC interpretation (susceptible/intermediate/resistant), 1579b: CLSI M45 Bacillus spp. or NARMS Enterococcus breakpoints; for MIC interpretation (susceptible/intermediate/resistant), 1579b / Minimum Inhibitory Concentrations (MIC), 1579b: duplicate b; for Minimum Inhibitory Concentrations (MIC), 1579a / Minimum Inhibitory Concentrations (MIC), 1579b: Mueller-Hinton broth, 37° C., read at 18 hours
Method: Methods. […] A sterile swab was used to take a portion of the pellet and resuspended in sterile ddH2O tubes; a 0.5 McFarland standard was used to determine the optimal dilution. 15 microliters of the ddH2O was transferred into the 5 mL tubes of Mueller-Hinton broth and the mixture was vortexed and poured into a sterile boat. A p200 multi-channel pipette was used to transfer 50 microliters into each well of the […] 96-well microtiter plate (CMV3AGPF) plate (FIG. 3) and sealed. The plates were incubated at 37° C. overnight. The plates were removed at 18 hours and each well was given a result of either positive or negative depending on if there was any growth in the well.

[2] = tested on: Bovine Aortic Endothelial Cells (BAEC); assay: Inflammatory marker gene expression in LPS stimulated bovine endothelial cells (qPCR); assay type: cell-based; design: Cox-2 gene expression: dose or concentration left out as unconfirmed; conditions: LPS stimulation, 6 hours, qPCR vs GAPDH
Method: To determine potential mode of action of PCA, in vitro studies were performed using Bovine Aortic Endothelial Cells (BAEC). Stress was induced in mammalian endothelial cells using a lipopolysaccharide (LPS) model, which causes an inflammatory response through inflammatory cytokine, NO and prostaglandin release. After 6 hours, cells were lysed and cellular RNA was recovered using Direct-zol RNA MiniPrep Plus kit (Zymo Research) following the manufacturer's instructions. RNA was converted to cDNA using the QuantiNova Reverse Transcription Kit (Qiagen). Gene expression was then quantified using the QuantiTect SYBR Green PCR kit with primers specific for inflammatory markers. Inducible nitric oxide expression was screened using primers iNOSF ([…], SEQ ID NO: 7) and iNOSR ([…], SEQ ID NO: 8), Cyclo-oxygenase 2 primers, COX2F ([…], SEQ ID NO: 9) and COX2R ([…], SEQ ID NO: 10), and Interleukin-6 primers IL6F ([…], SEQ ID NO: 11) and IL6R ([…], SEQ ID NO: 12) compared against the house keeping gene GAPDH, primers GAPDH-F ([…], SEQ ID NO: 13) and GAPDH-R ([…], SEQ ID NO: 14). Quantitative PCR reactions were set up in 20 μl volumes as per the manufacturer's recommendations (Qiagen). Thermocycler conditions started with a 15 min denaturation at 95° C. followed by 40 cycles of denaturation at 95° C. for 15 seconds, annealing at 60° C. for 30 seconds and extension at 60° C. for 30 seconds before a melt curve.

Compound	MIC interpretation (susceptible/intermediate/resistant), 1579a [1]	MIC interpretation (susceptible/intermediate/resistant), 1579b [1]	Minimum Inhibitory Concentrations (MIC), 1579a [1]	Minimum Inhibitory Concentrations (MIC), 1579b [1]	IL-6 expression ([2]; 1 g/ml and 10 µg/ml PCA)	iNOS gene expression ([2]; 1 g/ml and 10 µg/ml PCA)	Cox-2 gene expression ([2]; PCA)
CCCCCCCCCC(=O)N[C@@H](Cc1c[nH]c2ccccc12)C(=O)N[C@H](CC(N)=O)C(=O)N[C@@H](CC(=O)O)C(=O)N[C@@H]1C(=O)NCC(=O)N[C@@H](CCCN)C(=O)N[C@@H](CC(=O)O)C(=O)N[C@H](C)C(=O)N[C@@H](CC(=O)O)C(=O)NCC(=O)N[C@H](CO)C(=O)N[C@@H]([C@H](C)CC(=O)O)C(=O)N[C@@H](CC(=O)c2ccccc2N)C(=O)O[C@@H]1C [Daptomycin]	S	S					
CN(C)c1cc(NC(=O)CNC(C)(C)C)c(O)c2c1C[C@H]1C[C@H]3[C@H](N(C)C)C(O)=C(C(N)=O)C(=O)[C@@]3(O)C(O)=C1C2=O [Tigercycline]	S	S					
Penicillin	S	S	1	0.5			
Gentamycin	S	S	128	128			
CN[C@H](CC(C)C)C(=O)N[C@H]1C(=O)N[C@@H](CC(N)=O)C(=O)N[C@H]2C(=O)N[C@H]3C(=O)N[C@H](C(=O)N[C@H](C(=O)O)c4cc(O)cc(O)c4-c4cc3ccc4O)[C@H](O)c3ccc(c(Cl)c3)Oc3cc2cc(c3O[C@@H]2O[C@H](CO)[C@@H](O)[C@H](O)[C@H]2O[C@H]2C[C@](C)(N)[C@H](O)[C@H](C)O2)Oc2ccc(cc2Cl)[C@H]1O [Vancomycin]	S	S					
Quinupristin/dalfopristin			4	32			
O=C(O)c1ccc(O)c(O)c1 [PCA, protocatechuic acid]					dose dependently decreased	decreased	decreased
